Assay results taken from US6548495B2, “Dihydro-benzo [B] [1,4] diazepin-2-one derivatives” (Hoffmann-La Roche Inc., priority 2002, dated 2003).

Legend:
[1] = target: T1, recombinant rat mGluR2 expressed in CHO cells (Rattus norvegicus, UniProt P31421); experiment: [3H]-LY354740 binding on mGlu2 transfected CHO cell membranes (displacement binding assay); conditions: displacement of 10 nM [3H]-LY354740, membranes of CHO cells expressing rat mGlu2, room temperature, 1 hour; Ki calculated from IC50 with the Cheng and Prusoff equation
T1 construct: expressed in transfected cells; host or cells: CHO cells, stably transfected with pcD1mGR2 (pcDNA I-amp), G-418 selected; membranes used
Excerpt: In Table I below some specific Ki values of preferred compounds of the invention are presented. These values were obtained by indirect measurement of the affinity of the compounds for the recombinant rat mGluR2 expressed in CHO cells using a displacement binding assay with 3H-LY354740.
[^3H]-LY354740 Binding on mGlu2 Transfected CHO Cell Membranes
Transfection and Cell Culture
cDNA encoding the rat mGlu2 receptor protein in pBluescript II was obtained from Prof. S. Nakanishi (Kyoto, Japan), and subcloned into the eukaryotic expression vector pcDNA I-amp from Invitrogen (NV Leek, The Netherlands). This vector construct (pcD1mGR2) was co-transfected with a psvNeo plasmid encoding the gene for neomycin resistance, into CHO cells by a modified calcium phosphate method described by Chen & Okayama (1988). The cells were maintained in Dulbecco's Modified Eagle medium with reduced L-glutamine (2 mM final concentration) and 10% dialysed foetal calf serum from Gibco BRL (Basel, Switzerland). Selection was made in the presence of G-418 (1000 ug/mL final). Clones were identified by reverse transcription of 5 μg total RNA, followed by PCR using mGlu2 receptor specific primers 5′-[…]-3′ and 5′-[…]-3′ in 60 mM Tris HCl (pH 10), 15 mM (NH4)2SO4, 2 mM MgCl2, 25 units/mL Taq Polymerase with 30 cycles annealing at 60° C. for 1 min., extention at 72° C. for 30 s, and 1 min. 95° C. denaturation.
Cells, cultured as above, were harvested and washed three times with cold PBS and frozen at −80° C. The pellet was resuspended in cold 20 mM HEPES-NaOH buffer containing 10 mM EDTA (pH 7.4), and homogenised with a polytron (Kinematica, AG, Littau, Switzerland) for 10 s at 10000 rpm. After centrifugation for 30 min. at 4° C., the pellet was washed once with the same buffer, and once with cold 20 mM HEPES-NaOH buffer containing 0.1 mM EDTA, (pH 7.4). Protein content was measured using the Pierce method (Socochim, Lausanne, Switzerland) using bovine serum albumin as standard.
After thawing, the membranes were resuspended in cold 50 mM Tris-HCl buffer containing 2 mM MgCl2 and 2 mM CaCl2, (pH 7) (binding buffer). The final concentration of the membranes in the assays was 25 μg protein/mL. Inhibition experiments were performed with membranes incubated with 10 nM [^3H]-LY354740 at room temperature, for 1 hour, in presence of various concentrations of the compound to be tested. Following the incubations, membranes were filtered onto Whatmann GF/C glass fiber filters and washed 5 times with cold binding buffer. Non specific binding was measured in the presence of 10 μM DCG IV. After transfer of the filters into plastic vials containing 10 mL of Ultima-gold scintillation fluid (Packard, Züirich, Switzerland), the radioactivity was measured by liquid scintillation in a Tri-Carb 2500 TR counter (Packard, Züirich, Switzerland).
The inhibition curves were fitted with a four parameter logistic equation giving IC50 values, and Hill coefficients and the Ki values were calculated using the Cheng and Prusoff equation (Cheng, Y. and Prusoff, W. H., Biochem. Pharmacol. 1973, 22, 3099-3108). A small Ki value expresses high affinity of the compound towards the receptor.

T1 sequence (P31421 19-872): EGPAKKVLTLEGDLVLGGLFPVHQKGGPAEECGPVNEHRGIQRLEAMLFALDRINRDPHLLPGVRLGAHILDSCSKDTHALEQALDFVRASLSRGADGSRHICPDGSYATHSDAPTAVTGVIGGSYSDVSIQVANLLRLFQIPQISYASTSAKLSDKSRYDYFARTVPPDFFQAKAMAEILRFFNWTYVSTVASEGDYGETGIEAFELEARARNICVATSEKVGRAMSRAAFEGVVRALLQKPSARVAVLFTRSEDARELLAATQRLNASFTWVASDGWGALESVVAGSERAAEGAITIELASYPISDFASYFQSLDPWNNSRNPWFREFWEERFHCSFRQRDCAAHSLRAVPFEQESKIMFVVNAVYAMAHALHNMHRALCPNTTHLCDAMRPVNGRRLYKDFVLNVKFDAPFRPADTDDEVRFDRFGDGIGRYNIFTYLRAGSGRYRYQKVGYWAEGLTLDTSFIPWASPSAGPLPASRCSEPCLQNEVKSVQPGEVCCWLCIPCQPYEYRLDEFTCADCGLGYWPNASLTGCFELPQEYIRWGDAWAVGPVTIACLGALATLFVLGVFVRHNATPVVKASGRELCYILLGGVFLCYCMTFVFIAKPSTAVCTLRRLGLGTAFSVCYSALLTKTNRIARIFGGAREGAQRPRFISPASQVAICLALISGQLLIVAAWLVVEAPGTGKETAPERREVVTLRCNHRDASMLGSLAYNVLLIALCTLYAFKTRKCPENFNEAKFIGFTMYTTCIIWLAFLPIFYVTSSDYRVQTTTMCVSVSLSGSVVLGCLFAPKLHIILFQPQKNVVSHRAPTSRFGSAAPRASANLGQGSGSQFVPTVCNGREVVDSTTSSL

Row | SMILES | melting point | Ki [1]
1 | O=C1CC(c2cccc(-c3nc(C(=O)NCCO)co3)c2)=Nc2ccc(-n3cccc3)cc2N1 [Example 34, 2-[3-(4-oxo-7-Pyrrol-1-yl-4,5-dihydro-3H-benzo[b][1,4]diazepin-2-yl)-phenyl]-oxazole-4-carboxylic Acid (2-Hydroxy-ethyl)-amide] | 242 to 244 °C | 91 nM
2 | Cn1nccc1-c1cccc(C2=Nc3cc(N4CCOCC4)c(C(F)(F)F)cc3NC(=O)C2)c1 [Example 38, 4-[3-(2-Methyl-2H-pyrazol-3-yl)-phenyl]-7-morpholin-4-yl-8-trifluoromethyl-1,3-dihydro-benzo[b][1,4]diazepin-2-one] | 211 °C | 6 nM
3 | N#Cc1cc(C2=Nc3cc(N4CCSCC4)c(C(F)(F)F)cc3NC(=O)C2)ccn1 [Example 42, 4-(4-oxo-8-Thiomorpholin-4-yl-7-trifluoromethyl-4,5-dihydro-3H-benzo[b][1,4]diazepin-2-yl)-pyridine-2-carbonitrile] | 195 to 199 °C | 0.9 nM
4 | CCOc1cc2c(cc1C(F)(F)F)NC(=O)CC(c1cccc(-n3nncc3CO)c1)=N2 [Example 52, 7-Ethoxy-4-[3-(5-hydroxymethyl-[1,2,3]triazol-1-yl)-phenyl]-8-trifluoromethyl-1,3-dihydro-benzo[b][1,4]diazepin-2-one] | 214 °C | 83.5 nM
5 | CCOc1cc2c(cc1C(F)(F)F)NC(=O)CC(c1ccnc(C#N)c1)=N2 [Example 53, 4-(8-Ethoxy-4-oxo-7-trifluoromethyl-4,5-dihydro-3H-benzo[b][1,4]diazepin-2-yl)-pyridine-2-carbonitrile] | 233 °C | 8 nM
6 | Cc1cc2c(cc1C(F)(F)F)NC(=O)CC(c1ccnc(C#N)c1)=N2 [Example 58, 4-(8-Methyl-4-oxo-7-trifluoromethyl-4,5-dihydro-3H-benzo[b][1,4]diazepin-2-yl)-pyridine-2-carbonitrile] | 235 °C | 8.5 nM
7 | Cc1cc(-c2cccc(C3=Nc4cc(N5CCSCC5)c(C#N)cc4NC(=O)C3)c2)on1 [Example 62, 2-[3-(3-Methyl-isoxazol-5-yl)-phenyl]-4-oxo-8-thiomorpholin-4-yl-4,5-dihydro-3H-benzo[b][1,4]diazepine-7-carbonitrile] | 245 °C | 32.5 nM
8 | O=C1CC(c2cccc(-n3nncc3CNC3CC3)c2)=Nc2cc(Cl)c(C(F)(F)F)cc2N1 [Example 67, 7-Chloro-4-[3-(5-cyclopropylaminomethyl-[1,2,3]triazol-1-yl)-phenyl]-8-trifluoromethyl-1,3-dihydro-benzo[b][1,4]diazepin-2-one] | 206 °C | 15.5 nM
9 | Cc1cc2c(cc1C(F)(F)F)NC(=O)CC(c1cccc(-n3nncc3CNC3CC3)c1)=N2 [Example 69, 4-[3-(5-Cyclopropylaminomethyl-[1,2,3]triazol-1-yl)-phenyl]-7-methyl-8-trifluoromethyl-1,3-dihydro-benzo[b][1,4]diazepin-2-one] | 181 °C | 26 nM
10 | Cc1cc2c(cc1C(F)(F)F)NC(=O)CC(c1cccc(-n3cccn3)c1)=N2 [Example 77, 7-Methyl-4-(3-pyrazol-1-yl-phenyl)-8-trifluoromethyl-1,3-dihydro-benzo[b][1,4]diazepin-2-one] | 235 °C | 70 nM
11 | Cc1cc2c(cc1C(F)(F)F)NC(=O)CC(c1cccc(-c3nc(CO)sc3C)c1)=N2 [Example 84, 4-[3-(2-Hydroxymethyl-5-methyl-thiazol-4-yl)-phenyl]-7-methyl-8-trifluoromethyl-1,3-dihydro-benzo[b][1,4]diazepin-2-one] | 214 to 217 °C | 6.5 nM
